Measured values: patent US11208412B2 (DAEGU-GYEONGBUK MEDICAL INNOVATION FOUNDATION, priority 2017, dated 2021)

Key:
Assay in all cases: Kinase selectivity, DiscoverX scanMAX Kinase assay panel (% control)
Assay type in all cases: binding
[1] = target: T1, kinases of the scanMAX Kinase assay panel (Homo sapiens, UniProt O15530); settings: PDPK1; 1 uM
T1 construct: purchased DiscoverX Co. (contract measurement) scanMAX Kinase assay panel
T1 sequence (O15530 1-556): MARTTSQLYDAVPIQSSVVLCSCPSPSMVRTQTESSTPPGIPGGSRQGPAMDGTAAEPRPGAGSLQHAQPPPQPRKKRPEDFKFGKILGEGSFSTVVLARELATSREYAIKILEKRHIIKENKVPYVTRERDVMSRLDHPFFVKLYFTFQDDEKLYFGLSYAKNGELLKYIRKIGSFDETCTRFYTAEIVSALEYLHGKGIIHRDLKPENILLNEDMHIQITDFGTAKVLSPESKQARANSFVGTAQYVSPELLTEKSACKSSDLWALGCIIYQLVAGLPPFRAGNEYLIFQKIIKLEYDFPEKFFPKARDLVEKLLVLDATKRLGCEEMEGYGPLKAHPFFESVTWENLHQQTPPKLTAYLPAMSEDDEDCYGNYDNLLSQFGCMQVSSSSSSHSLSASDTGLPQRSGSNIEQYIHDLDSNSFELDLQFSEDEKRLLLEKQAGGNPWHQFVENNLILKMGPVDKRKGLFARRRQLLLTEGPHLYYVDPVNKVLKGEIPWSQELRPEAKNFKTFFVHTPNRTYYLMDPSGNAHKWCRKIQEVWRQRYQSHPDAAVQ
Procedure, shortened: (§1)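 Single-point screen, 1 uM cpd in DMSO. % ctrl = (cpd − pos ctrl)/(neg ctrl − pos ctrl)×100; pos ctrl = 0%, DMSO neg ctrl = 100%. Hit cutoff <35%.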

[2] = target: T2, kinases of the scanMAX Kinase assay panel (Homo sapiens, UniProt P09619); settings: PDGFRB; 1 uM
T2 construct: purchased DiscoverX Co. (contract measurement) scanMAX Kinase assay panel
Procedure, shortened: as §1

[3] = target: T3, kinases of the scanMAX Kinase assay panel (Homo sapiens, UniProt P42336, H1047L); settings: PIK3CA(H1047L); 1 uM
T3 construct: purchased DiscoverX Co. (contract measurement) scanMAX Kinase assay panel
T3 sequence (P42336 whole entry H1047L): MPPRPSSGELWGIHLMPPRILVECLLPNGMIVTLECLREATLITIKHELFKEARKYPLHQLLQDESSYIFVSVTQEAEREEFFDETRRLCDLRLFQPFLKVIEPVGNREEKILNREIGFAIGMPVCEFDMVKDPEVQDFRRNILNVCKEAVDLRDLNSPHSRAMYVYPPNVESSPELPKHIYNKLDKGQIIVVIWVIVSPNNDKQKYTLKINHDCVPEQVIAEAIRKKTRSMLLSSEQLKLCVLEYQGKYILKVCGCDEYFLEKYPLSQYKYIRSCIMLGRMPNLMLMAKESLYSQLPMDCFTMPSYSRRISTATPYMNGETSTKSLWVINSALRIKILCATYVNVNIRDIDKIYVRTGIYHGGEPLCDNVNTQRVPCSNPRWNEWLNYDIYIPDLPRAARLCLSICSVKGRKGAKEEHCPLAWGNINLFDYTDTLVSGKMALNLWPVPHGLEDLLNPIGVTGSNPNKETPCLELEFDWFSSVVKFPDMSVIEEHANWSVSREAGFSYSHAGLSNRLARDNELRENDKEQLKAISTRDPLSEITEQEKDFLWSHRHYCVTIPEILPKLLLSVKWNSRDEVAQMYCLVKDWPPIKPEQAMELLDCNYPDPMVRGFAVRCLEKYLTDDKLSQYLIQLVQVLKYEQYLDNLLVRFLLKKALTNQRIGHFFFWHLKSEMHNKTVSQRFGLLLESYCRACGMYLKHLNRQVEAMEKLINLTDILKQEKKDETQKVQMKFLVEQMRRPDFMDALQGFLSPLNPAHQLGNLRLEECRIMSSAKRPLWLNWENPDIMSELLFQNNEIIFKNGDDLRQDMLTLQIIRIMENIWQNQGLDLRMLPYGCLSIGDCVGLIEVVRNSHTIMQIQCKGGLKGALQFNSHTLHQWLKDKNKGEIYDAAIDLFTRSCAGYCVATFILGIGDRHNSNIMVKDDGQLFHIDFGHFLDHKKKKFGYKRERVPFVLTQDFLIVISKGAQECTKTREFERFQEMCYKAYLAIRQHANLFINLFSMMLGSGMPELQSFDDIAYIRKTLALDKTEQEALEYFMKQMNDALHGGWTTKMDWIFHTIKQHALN
Procedure, shortened: as §1

[4] = target: T4, kinases of the scanMAX Kinase assay panel (Homo sapiens, UniProt P54764); settings: EPHA4; 1 uM
T4 construct: purchased DiscoverX Co. (contract measurement) scanMAX Kinase assay panel
T4 sequence (P54764 20-986): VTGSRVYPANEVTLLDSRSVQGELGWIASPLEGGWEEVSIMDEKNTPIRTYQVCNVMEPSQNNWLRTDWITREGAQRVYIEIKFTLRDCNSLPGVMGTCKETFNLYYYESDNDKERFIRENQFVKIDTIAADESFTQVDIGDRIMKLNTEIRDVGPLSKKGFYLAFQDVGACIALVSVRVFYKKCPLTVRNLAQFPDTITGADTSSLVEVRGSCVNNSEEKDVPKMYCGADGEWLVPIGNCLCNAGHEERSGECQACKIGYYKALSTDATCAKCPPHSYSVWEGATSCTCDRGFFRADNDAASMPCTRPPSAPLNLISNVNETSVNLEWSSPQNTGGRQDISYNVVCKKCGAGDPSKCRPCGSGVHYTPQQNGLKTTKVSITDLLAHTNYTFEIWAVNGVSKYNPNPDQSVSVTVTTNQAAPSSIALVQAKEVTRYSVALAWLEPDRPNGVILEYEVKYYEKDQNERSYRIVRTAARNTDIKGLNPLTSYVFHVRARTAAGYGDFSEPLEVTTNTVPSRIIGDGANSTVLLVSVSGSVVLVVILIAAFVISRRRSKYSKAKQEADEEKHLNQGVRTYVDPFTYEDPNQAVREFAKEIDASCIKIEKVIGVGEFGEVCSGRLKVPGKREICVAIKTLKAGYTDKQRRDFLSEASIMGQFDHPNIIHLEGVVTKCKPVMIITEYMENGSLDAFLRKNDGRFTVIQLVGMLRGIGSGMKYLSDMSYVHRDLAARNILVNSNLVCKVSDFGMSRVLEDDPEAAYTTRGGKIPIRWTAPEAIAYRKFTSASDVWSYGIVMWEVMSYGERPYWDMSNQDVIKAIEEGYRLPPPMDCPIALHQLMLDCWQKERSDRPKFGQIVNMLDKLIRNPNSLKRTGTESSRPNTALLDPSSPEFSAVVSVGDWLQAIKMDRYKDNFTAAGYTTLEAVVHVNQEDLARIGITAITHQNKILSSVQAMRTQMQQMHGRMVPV
Procedure, shortened: as §1

[5] = target: T5, kinases of the scanMAX Kinase assay panel (Homo sapiens, UniProt P80192); settings: MLK1; 1 uM
T5 construct: purchased DiscoverX Co. (contract measurement) scanMAX Kinase assay panel
Procedure, shortened: as §1

[6] = target: T6, kinases of the scanMAX Kinase assay panel (Homo sapiens, UniProt Q04759); settings: PRKCQ; 1 uM
T6 construct: purchased DiscoverX Co. (contract measurement) scanMAX Kinase assay panel
Procedure, shortened: as §1

[7] = target: T7, kinases of the scanMAX Kinase assay panel (Homo sapiens, UniProt Q96PN8); settings: kinase TSSK3; 1 uM in DMSO
T7 construct: purchased DiscoverX Co. (contract measurement) scanMAX Kinase assay panel
T7 sequence (Q96PN8 1-268): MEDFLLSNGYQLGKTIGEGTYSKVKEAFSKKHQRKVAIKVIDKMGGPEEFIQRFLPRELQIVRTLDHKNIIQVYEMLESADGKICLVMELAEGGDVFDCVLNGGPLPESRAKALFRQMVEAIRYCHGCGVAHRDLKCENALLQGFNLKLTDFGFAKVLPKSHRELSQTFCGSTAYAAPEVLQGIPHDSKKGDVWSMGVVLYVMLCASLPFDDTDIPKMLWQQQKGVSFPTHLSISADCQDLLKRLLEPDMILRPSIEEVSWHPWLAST
Procedure, shortened: as §1

[8] = target: T8, kinases of the scanMAX Kinase assay panel (Homo sapiens, UniProt Q9H4A3); settings: kinase WNK1; 1 uM in DMSO
T8 construct: purchased DiscoverX Co. (contract measurement) scanMAX Kinase assay panel
T8 sequence (Q9H4A3 whole entry): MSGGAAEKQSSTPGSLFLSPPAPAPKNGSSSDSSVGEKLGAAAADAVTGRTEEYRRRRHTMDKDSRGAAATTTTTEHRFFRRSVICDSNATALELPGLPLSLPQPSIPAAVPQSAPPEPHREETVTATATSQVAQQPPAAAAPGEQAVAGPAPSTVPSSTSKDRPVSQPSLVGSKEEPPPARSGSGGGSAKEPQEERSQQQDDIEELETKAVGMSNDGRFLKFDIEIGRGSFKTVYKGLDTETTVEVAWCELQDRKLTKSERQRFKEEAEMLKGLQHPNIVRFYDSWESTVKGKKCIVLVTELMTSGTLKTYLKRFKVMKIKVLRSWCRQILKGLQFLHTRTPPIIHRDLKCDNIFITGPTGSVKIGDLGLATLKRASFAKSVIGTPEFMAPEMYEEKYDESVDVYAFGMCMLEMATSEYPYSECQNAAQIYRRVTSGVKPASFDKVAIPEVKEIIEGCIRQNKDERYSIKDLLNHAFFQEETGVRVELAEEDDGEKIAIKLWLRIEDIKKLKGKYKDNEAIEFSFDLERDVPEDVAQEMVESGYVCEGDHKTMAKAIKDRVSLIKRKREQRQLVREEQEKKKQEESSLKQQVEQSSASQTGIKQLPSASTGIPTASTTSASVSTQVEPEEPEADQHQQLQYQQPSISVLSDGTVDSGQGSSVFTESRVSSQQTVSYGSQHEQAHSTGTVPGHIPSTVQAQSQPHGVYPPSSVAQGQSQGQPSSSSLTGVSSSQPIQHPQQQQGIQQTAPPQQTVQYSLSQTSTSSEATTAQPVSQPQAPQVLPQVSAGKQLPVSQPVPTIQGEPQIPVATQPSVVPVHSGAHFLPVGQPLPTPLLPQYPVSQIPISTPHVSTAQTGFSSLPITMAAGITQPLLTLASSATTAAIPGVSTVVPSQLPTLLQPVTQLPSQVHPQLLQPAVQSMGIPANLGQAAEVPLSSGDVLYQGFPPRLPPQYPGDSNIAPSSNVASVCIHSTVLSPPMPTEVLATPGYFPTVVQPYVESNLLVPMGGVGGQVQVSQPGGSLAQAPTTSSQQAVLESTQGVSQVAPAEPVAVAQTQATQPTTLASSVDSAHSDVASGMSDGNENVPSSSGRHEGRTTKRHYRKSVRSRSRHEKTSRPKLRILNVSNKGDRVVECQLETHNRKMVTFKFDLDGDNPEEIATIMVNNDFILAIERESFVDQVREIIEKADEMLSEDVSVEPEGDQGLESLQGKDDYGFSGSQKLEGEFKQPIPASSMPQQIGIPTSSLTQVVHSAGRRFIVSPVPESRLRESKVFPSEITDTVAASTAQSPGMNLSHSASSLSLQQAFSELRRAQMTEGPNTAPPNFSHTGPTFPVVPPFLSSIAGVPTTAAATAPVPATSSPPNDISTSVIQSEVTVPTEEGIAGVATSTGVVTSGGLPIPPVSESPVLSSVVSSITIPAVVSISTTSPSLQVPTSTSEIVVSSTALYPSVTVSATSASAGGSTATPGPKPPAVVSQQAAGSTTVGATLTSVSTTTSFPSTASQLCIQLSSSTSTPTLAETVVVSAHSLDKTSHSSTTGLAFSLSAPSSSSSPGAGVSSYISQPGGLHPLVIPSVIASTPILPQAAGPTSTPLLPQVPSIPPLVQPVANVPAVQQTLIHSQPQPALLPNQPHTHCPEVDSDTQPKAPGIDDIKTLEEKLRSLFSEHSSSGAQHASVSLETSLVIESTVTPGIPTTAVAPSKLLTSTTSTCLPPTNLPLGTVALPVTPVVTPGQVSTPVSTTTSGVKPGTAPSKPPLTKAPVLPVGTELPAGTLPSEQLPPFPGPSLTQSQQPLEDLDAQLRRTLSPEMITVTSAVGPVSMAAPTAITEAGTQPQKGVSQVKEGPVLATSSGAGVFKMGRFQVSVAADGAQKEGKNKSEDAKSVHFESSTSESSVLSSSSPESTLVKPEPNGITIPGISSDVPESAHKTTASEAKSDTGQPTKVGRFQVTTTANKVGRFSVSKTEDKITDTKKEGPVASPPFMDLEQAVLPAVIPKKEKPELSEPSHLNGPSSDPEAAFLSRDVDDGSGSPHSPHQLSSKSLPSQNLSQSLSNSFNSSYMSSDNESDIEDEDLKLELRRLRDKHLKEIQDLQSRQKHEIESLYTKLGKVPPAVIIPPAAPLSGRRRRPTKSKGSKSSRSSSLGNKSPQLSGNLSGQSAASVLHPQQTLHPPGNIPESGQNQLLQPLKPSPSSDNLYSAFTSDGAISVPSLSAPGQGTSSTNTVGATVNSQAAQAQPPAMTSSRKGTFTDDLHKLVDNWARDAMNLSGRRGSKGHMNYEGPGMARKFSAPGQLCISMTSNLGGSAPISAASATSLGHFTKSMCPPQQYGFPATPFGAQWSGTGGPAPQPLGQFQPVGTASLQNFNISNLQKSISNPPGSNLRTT
Procedure, shortened: as §1

[9] = target: T9, kinases of the scanMAX Kinase assay panel (Homo sapiens, UniProt Q9UHD2); settings: kinase TBK1; 1 uM in DMSO
T9 construct: purchased DiscoverX Co. (contract measurement) scanMAX Kinase assay panel
T9 sequence (Q9UHD2 1-729): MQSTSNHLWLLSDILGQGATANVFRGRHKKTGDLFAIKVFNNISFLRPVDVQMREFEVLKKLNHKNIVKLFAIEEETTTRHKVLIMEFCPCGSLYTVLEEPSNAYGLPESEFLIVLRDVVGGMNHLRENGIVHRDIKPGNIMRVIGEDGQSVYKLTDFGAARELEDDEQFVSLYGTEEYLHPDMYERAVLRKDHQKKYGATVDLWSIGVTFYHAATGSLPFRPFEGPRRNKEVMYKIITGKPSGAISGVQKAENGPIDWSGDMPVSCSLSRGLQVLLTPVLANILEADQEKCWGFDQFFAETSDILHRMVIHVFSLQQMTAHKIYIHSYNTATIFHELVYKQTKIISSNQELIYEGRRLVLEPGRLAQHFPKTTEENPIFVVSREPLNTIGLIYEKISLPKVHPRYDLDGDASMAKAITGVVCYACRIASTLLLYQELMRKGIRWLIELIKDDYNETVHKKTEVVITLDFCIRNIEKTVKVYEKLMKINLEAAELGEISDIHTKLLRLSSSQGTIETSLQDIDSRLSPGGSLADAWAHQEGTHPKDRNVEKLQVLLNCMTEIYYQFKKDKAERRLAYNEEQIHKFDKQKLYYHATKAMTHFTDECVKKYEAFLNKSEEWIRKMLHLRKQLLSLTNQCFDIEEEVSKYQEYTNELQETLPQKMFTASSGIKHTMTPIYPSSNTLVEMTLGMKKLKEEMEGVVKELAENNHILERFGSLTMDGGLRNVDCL
Procedure, shortened: as §1

[10] = target: T10, kinases of the scanMAX Kinase assay panel (Homo sapiens, UniProt Q9Y2I7); settings: PIKFYVE; 1 uM
T10 construct: purchased DiscoverX Co. (contract measurement) scanMAX Kinase assay panel
Procedure, shortened: as §1

[11] = target: T11, kinases of the scanMAX Kinase assay panel (Plasmodium falciparum, UniProt P61075); settings: PFPK5(P. falciparum); 1 uM
T11 construct: purchased DiscoverX Co. (contract measurement) scanMAX Kinase assay panel
T11 sequence (P61075 whole entry): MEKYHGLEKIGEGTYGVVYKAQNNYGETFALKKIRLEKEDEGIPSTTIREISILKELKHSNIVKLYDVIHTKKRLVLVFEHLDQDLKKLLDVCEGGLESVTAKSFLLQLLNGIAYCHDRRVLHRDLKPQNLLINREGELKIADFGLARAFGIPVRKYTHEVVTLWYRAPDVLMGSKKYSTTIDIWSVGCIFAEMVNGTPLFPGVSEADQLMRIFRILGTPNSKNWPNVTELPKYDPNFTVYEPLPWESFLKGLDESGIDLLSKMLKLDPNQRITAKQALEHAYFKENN
Procedure, shortened: as §1

SMILES | remaining binding at 1 µM [1] [%] | remaining binding at 1 µM [2] [%] | remaining binding at 1 µM [3] [%] | remaining binding at 1 µM [4] [%] | remaining binding at 1 µM [5] [%] | remaining binding at 1 µM [6] [%] | remaining binding at 1 µM [7] [%] | remaining binding at 1 µM [8] [%] | remaining binding at 1 µM [9] [%] | remaining binding at 1 µM [10] [%] | remaining binding at 1 µM [11] [%]
CCNc1nc(Nc2ccc(C(=O)N3CCC(N4CCOCC4)CC3)cc2OC)nc2[nH]cc(C(F)(F)F)c12 [Example 104, (4-((4-(ethylamino)-5-(trifluoromethyl)-7H-pyrrolo[2,3-d]pyrimidine-2-yl)amino)-3-methoxyphenyl)(4-morpholinopiperidine-1-yl)methanone] | 100 | 60 | 88 | 100 | 66 | 100 | 100 | 100 | 84 | 100 | 100
CNc1nc(Nc2ccc(C(=O)N3CCOCC3)cc2OC)nc2[nH]cc(C#N)c12 [Example 1, 2-((2-methoxy-4-(morpholine-4-carbonyl)phenyl)amino)-4-(methylamino)-7H-pyrrolo[2,3-d]pyrimidine-5-carbonitrile] | 81 | 84 | 100 | 93 | 81 | 95 | 74 | 70 | 85 | 73 | 76
CC1(Nc2nc(Nc3cnn([C@H]4CCN(C5COC5)C[C@@H]4F)c3Cl)nc3[nH]cc(C#N)c23)CC1 [Example 52, 2-((5-chloro-1-((3S,4S)-3-fluoro-1-(oxetane-3-yl)piperidine-4-yl)-1H-pyrazole-4-yl)amino)((1-methylcyclopropyl)amino)-7H-pyrrolo[2,3-d]pyrimidine-5-carbonitrile] | 70 | 0.35 | 70 | 75 | 0.5 | 47 | 72 | 99 | 4.8 | 65 | 100
